Reference: patent publication US11959104B2, “Methods of differentiating stem cell-derived ectodermal lineage precursors” (MEMORIAL SLOAN-KETTERING CANCER CENTER, priority 2016, dated 2024)
“Also recorded” adds a separate entry of the source. Like-named read-outs stand apart in the source and are kept apart here. Ends that are not written are not given here.

What was measured:
[1] = test system: hPSC-derived cranial placode; assay: Pituitary placode induction, day 15 (qRT-PCR, immunofluorescence); format: cell-based; conditions: for induction of anterior pituitary genes / lineage markers: from day 4, day 15 analysis
Description: For pituitary differentiation cells were plated at 250 000 cells/cm^2 on VTN-N coated dishes (differentiation works best in 24 well plates) in E8+10 μM Y-27632. After 24 h (day 0) medium was changed to E6 supplemented with 10 μM SB431542 and 5 ng/ml BMP4 (R&D Systems). Medium was changed every day. On day 3 BMP4 was removed from the medium and cells were cultured for 1 day in E6+10 μM SB431542. For the standard differentiation conditions, on day 4 E6 was supplemented with 10 μM SB431542, 200 ng/ml SHH (R&D Systems, C25II), 100 ng/ml FGF8b (R&D Systems) and 50 ng/ml FGF10 (Peprotech Inc.). For some experiments SHH was replaced by 1 μM purmorphamine (Stemgent) or 1 μM SAG (Stemcell Technologies). From now on medium volume was doubled and cells were feed every other day until day 15. On day 15 of differentiation SIX1 H2B::GFP^+ cells were sorted using a BDFACS Aria III cell sorter. Purified cells were then plated as droplets (50 000 cells/10 μl drop) in E6 supplemented with 10 Y-27632, 200 ng/ml SHH, 100 ng/ml FGF8b and 50 ng/ml FGF10 on polyornithine/laminin/fibronectin-coated plates. After 24 h medium was changed to E6 containing SHH, FGF8 and FGF10 until day 30. Medium was changed every other day. For some experiments pituitary induction was started slightly later (day 6) or cells were differentiated in medium conditioned by hypothalamic neuroectoderm from either day 4 or day 6 on. For the co-culture experiment SIX1 H2B::GFP positive cells were sorted on day 6 and 50 000 cells/cm^2 were plated directly on hypothalamic neuroectodermal cells in E6 only supplemented with 10 SB431542.
Total RNA was extracted from at least 3 independent experiments using the TRIzol (Fisher Scientific) reagent in combination with Phase-lock tubes (5Prime) according to the manufactures protocol. 1 μg of total RNA was reverse transcribed into cDNA using iScript (BioRad). For quantitative RT PCR we used the SSoFast EvaGreen Mix (BioRad) in combination with QuantiTect primer assays (Qiagen) on a BioRad CFX96 Thermal Cycler. All reactions were run according to the manufacturer's protocol. Results are calculated using the ΔΔCt method (Livak and Schmittgen, 2001).
After washing the cells once with PBS, cells were fixed with 4% (v/v) paraformaldehyde for 20 min, washed twice with PBS, permeabilized using 0.1% (v/v) Triton X-100 in PBS, Cells were blocked with 10% (v/v) FCS in PBS for 1-5 h at room temperature. Cells were incubated with primary antibodies diluted in 2% FCS (v/v) in PBS at 4° C. overnight. A list of the primary antibodies used in this study is provided as FIG. 28. […] After and additional 2 washing steps, fluorescence images of the cells were taken using an Olympus IX71 inverted microscope equipped with a Hamamatsu ORCA CCD camera.

[2] = test system: hPSC-derived pituitary cells; assay: Stimulation of hormone release in vitro (ELISA); format: cell-based, human; conditions: day 30 of differentiation
Description: To stimulate hormone release in vitro, cells were differentiated in 24 well plates as described above. On day 30 of differentiation cells were washed once with PBS and 250 μl of fresh medium containing either the solvent or the stimulant were added to each well. After 12 h the supernatant was removed and centrifuged for 5 min at 2000 g to pellet debris. Supernatant was transferred into fresh reaction tubes, flash frozen and stored at −80° C. until ELISA measurements. Stimulants used were: CRF (Tocris, 1 μM), Stressin I (Tocris, 2 μM), Ghrelin (Tocris, 1 μM), Somatocrinin (Accurate Chemical, 1 μg/ml), Nafarelin (Tocris, 1 μM) and Urocortin (Tocris, 500 nM).
Hormone concentration in the supernatant of cells or in animal serum was analyzed using ELISA measurements. Hormone concentration in the cell culture supernatant was assessed using traditional single hormone ELISA Kits according to the manufactures manual. ACTH (Calbiotech, detects rat and human ACTH), hGH (R&D Systems, human specific), FSH (Calbiotech, FSH (lumELISA, human specific) and corticosterone (Abcam). Plates were read using an EnSpire Multimode plate reader (PerkinElmer). Hormone concentration in in vivo samples was analyzed using either traditional ELISA (for ACTH only, serum diluted 1:2) or species specific (human or rat) Milliplex multiplex ELISA using Luminex technology (Millipore). Magnetic bead-based sandwich immunoassay was performed according to the manufactures manual. 25 μl of undiluted serum samples in duplicate wells were analyzed by Luminex FlexMap 3D (Luminex Corp, Austin, TX). Cytokine concentrations were determined by Luminex Xponent 4.1 and EMD-Millipore Milliplex Analyst v5.1 using 5-p log analysis.

[3] = test system: Six1::H2B-GFP reporter line; assay: LOPAC small molecule screen and validation for enhanced CP induction
Description: All differentiations starting from E8 were dissociated into single cells using EDTA and replated at high density in E8 with the ROCK inhibitor (Tocris). Cells were typically seeded at a density of 200,000 cells/cm^2 on Matrigel coated dishes. Switching from E8 to E6 triggered differentiations (i.e. d0). Neuroectoderm (NE) formation was generated by culturing the cells in E6 with 10 nM SB and 500 nM LDN until d12. Neural Crest (NC) was first treated with 10 nM SB, 600 nM CHIR and 1 ng/ml BMP4 from d0-d2. […] Lens placode was first treated with 10 nM SB and 5 ng/ml BMP4 from d0-d2. At d2, cells were maintained in 10 nM SB with 100 ng/ml FGF2 until d12. Trigeminal placode was first treated with 10 nM SB and 5 ng/ml BMP4 from d0-d2. At d2, CHIR was added to the SB and BMP4 until d4. Finally, non-neural ectoderm (NNE) was treated with 10 nM SB, 10 nM SU5402 and 20 ng/ml BMP4 until d12.

[4] = test system: hPSCs; assay: Toxicity of KSR-protocol small molecule concentrations in E6 differentiation; format: cell-based, human; conditions: original KSR-protocol concentration used in E6
From the text: To transition these protocols into the more defined E6 media, we adapted hPSCs in E8 for multiple passages and simply replaced the KSR-based medium with an E6 based differentiation while maintaining factors and concentrations as described previously to trigger the 4 major ectodermal lineages (FIG. 9A). […] After determining an optimal non-toxic concentration for each of the small molecules we observed that NE formation under E6 conditions was equivalent to that obtained with KSR-based conditions. […] We compared the efficiency of generating PAX6 positive cells using either no small molecules, using dSMADi or using the single TGFβ inhibitor SB431542 (SB). We found robust PAX6 expression in the absence of dSMADi (˜40% of total cells on day 12 post induction). However, the percentage of cells expressing PAX6 was further improved upon addition of SB or dSMADi to nearly 90% and 80%, respectively (FIGS. 1E and 9B).

[5] = test system: hPSC; assay: BMP dose response for TFAP2A, NNE and CP induction in E6 media; format: cell-based, human
Description: (§1) All differentiations starting from E8 were dissociated into single cells using EDTA and replated at high density in E8 with the ROCK inhibitor (Tocris). Cells were typically seeded at a density of 200,000 cells/cm^2 on Matrigel coated dishes. Switching from E8 to E6 triggered differentiations (i.e. d0). Neuroectoderm (NE) formation was generated by culturing the cells in E6 with […] and 500 nM LDN until d12. Neural Crest (NC) was first treated with […], 600 nM CHIR and 1 ng/ml BMP4 from d0-d2. At d2, cells were maintained in […] with 1.5 uM CHIR until d12. Lens placode was first treated with […] and 5 ng/ml BMP4 from d0-d2. At d2, cells were maintained in […] with 100 ng/ml FGF2 until d12. Trigeminal placode was first treated with […] and 5 ng/ml BMP4 from d0-d2. At d2, CHIR was added to the SB and BMP4 until d4. Finally, non-neural ectoderm (NNE) was treated with 10 nM SB, 10 nM SU5402 and 20 ng/ml BMP4 until d12.

[6] = test system: hPSC; assay: Neural crest induction, SOX10 positive cells; format: cell-based, human
Description: as §1

[7] = three-day pulse with SB431542, dose-response

c1ccc2c(Oc3nc(Nc4ccc(N5CCOCC5)cc4)c4ncn(C5CCCCC5)c4n3)cccc2c1 [purmorphamine]
cell death [1]: increase in cell death | induction of anterior pituitary genes / lineage markers [1]: robust induction of anterior pituitary-lineage markers

Urocortin: stimulant of hormone release (Tocris, 500 nM) (DNPSLSIDLTFHLLRTLLELARTQSQRERAEQNRIIFDSV; ends and bridges not checked; UniProt P55089 83-122, looked up)
ACTH release [2]: specifically induced | ACTH release ([2]; listed as urocortin): induced release of ACTH

CNC1CCC(N(Cc2cccc(-c3ccncc3)c2)C(=O)c2sc3ccccc3c2Cl)CC1 (centres unmarked) [SAG]
induction of anterior pituitary genes / lineage markers [1]: robust induction of anterior pituitary-lineage markers | cell death ([1]; small-molecule-based induction replacing SHH): increase in cell death

CRF: stimulant of hormone release (Tocris, 1 μM) (SEEPPISLDLTFHLLREVLEMARAEQLAQQAHSNRKLMEII; ends and bridges not checked; UniProt P06850 154-194, looked up)
ACTH release [2]: induced release of ACTH; also recorded: specifically induced

c1cnc2c(c1)ccc1cccnc12 [Phenantroline]
percentage of cells expressing Six1 (hit validation) ([3]; CP protocol): confirmed to reliably enhance the percentage of cells expressing Six1 | Six1 positive cells ([3]; CP protocol in the absence of FGF2, control 18%): 69% | expression of Six1 versus control differentiations (primary screen hit) ([3]; LOPAC screen, CP protocol): increased expression of SIX1 | fold increase of Six1 positive cells ([3]; absence of FGF2, 69% versus 18%): ~4 fold | expression of other lineage markers such as Sox10, T, MyoD or Sox17 ([3]; differentiation towards CP): without inducing the expression of other lineage markers | increase in Six1 expression over controls ([3]; differentiation towards CP): five-fold

Ghrelin: stimulant of hormone release (Tocris, 1 μM) (GSSFLSPEHQRVQQRKESKKPPAKLQPR; also: octanoylated, site not given here; UniProt Q9UBU3 24-51, looked up)
ACTH release [2]: did not trigger ACTH release

Cc1c[nH]c(/C=C2\C(=O)Nc3ccccc32)c1CCC(=O)O [SU5402, 2-[(1,2-Dihydro-2-oxo-3H-indol-3-ylidene)methyl]-4-methyl-1H-pyrrole-3-pr-opanoic acid]
cell killing during differentiation [4]: effectively killed the cells

Somatocrinin: stimulant of hormone release (Accurate Chemical, 1 μg/ml) (YADAIFTNSYRKVLGQLSARKLLQDIMSRQQGESNQERGARARL; ends and bridges not checked; UniProt P01286 32-75, looked up)
GH release [2]: induced | ACTH release ([2]; listed as somatocrinin): did not trigger ACTH release | GH release ([2]; listed as somatocrinin): triggered robust increase in GH release

B1: BMP4: activator of BMP signaling (protein, UniProt P12644 293-408, looked up)
Bone morphogenetic protein 4: SPKHHSQRARKKNKNCRRHSLYVDFSDVGWNDWIVAPPGYQAFYCHGDCPFPLADHLNSTNHAIVQTLVNSVNSSIPKACCVPTELSAISMLYLDEYDKVVLKNYQEMVVEGCGCR
BMP4 concentration optimal for CP induction [5, 7]: around 5 ng/ml | SOX10 positive NC population generated ([6]; short pulse of BMP4 (1 ng/ml) with Wnt activation and SB431542): nearly homogenous SOX10 positive NC population | BMP4 concentration giving strong NC induction [6, 7]: around 1 ng/ml

B2: BMP: BMP signaling activator used in E6 media, BMP4 per methods (protein, UniProt P12644 293-408, looked up)
Bone morphogenetic protein 4: B1 Bone morphogenetic protein 4
marker phenotype at high BMP (NNE) ([5]; 20 ng/ml BMP): cells become TFAP2A positive and lack the expression of SOX10 and SIX1 | TFAP2A expression ([5]; within three days, with SB431542 in E6 media, dose dependent): rapidly upregulated
